Laboratory results from publication PMC13224317 (SLAS discovery : advancing life sciences R & D, 2025).
“And” between values parts separate entries of the source, which are not always exact repeats. Identical values can stand only once. Like-named read-outs stand apart in the source and are kept apart here.

Assays:
icSARS-CoV-2-nLuc [1] = test: microbe, parasite or virus in culture; assay type: cell-based, SARS-CoV-2
C3 cell line = test: Cytotoxicity toward the C3 cell line (single point at 10 μM and CC50); assay type: cell-based; details: raw well reading, duplicate wells
Method: The rate of false positive hits was 2.5% between the two biological replicates. […] The 3 compounds have CC50 equal to- or higher than 36 μM. Based on available information, these three compounds have not been tested against SARS-CoV-2 nor have any reports of antiviral activity, and therefore warrant further investigation.

icSARS-CoV-2-nLuc [2] = test: microbe, parasite or virus in culture; assay type: cell-based, SARS-CoV-2; details: Severe acute respiratory syndrome coronavirus 2, 48 h, read-out: IC50 against icSARS-CoV-2-nLuc, immunofluorescence data
icSARS-CoV-2-nLuc [3] = assay type: cell-based, SARS-CoV-2
icSARS-CoV-2-nLuc [4] = assay type: cell-based, SARS-CoV-2; remark: listed apart in the source
[5] = Severe acute respiratory syndrome coronavirus 2, A549-ACE2, read-out: IC50, susceptibility of icSARS-CoV-2-nLuc to reference drugs, luminescence readout

CC(C)(C)NC(=O)N[C@H](C(=O)N1C[C@H]2[C@@H]([C@H]1C(=O)NC(CC1CCC1)C(=O)C(N)=O)C2(C)C)C(C)(C)C (some centres unmarked) [Boceprelvir, Boceprevir]
IC50 (icSARS-CoV-2-nLuc [1]; [5]): 3000 nM
raw nLuc luminescence signal per well, dose response (icSARS-CoV-2-nLuc [1]; concentration 0.444444 µM): 1318016 and 1552909 and 1027714 and 1937158 and 1341520 and 1697592 and 1866146 and 1427750
raw nLuc luminescence signal per well, dose response (icSARS-CoV-2-nLuc [1]; concentration 1.33333 µM): 1081320 and 1354101 and 1808712 and 2111860 and 1262757 and 1236512 and 1094043 and 1751641
raw nLuc luminescence signal per well, dose response (icSARS-CoV-2-nLuc [1]; concentration 12 µM): 325338 and 397893 and 288277 and 313675 and 434098 and 457388 and 421160 and 498406
raw nLuc luminescence signal per well, dose response (icSARS-CoV-2-nLuc [1]; concentration 36 µM): 152331 and 158422 and 131796 and 134954 and 143730 and 155578 and 143192 and 145460

CC(C)C(=O)OC[C@H]1O[C@@H](n2ccc(NO)nc2=O)[C@H](O)[C@@H]1O [Molnupiravir]
IC50 (icSARS-CoV-2-nLuc [1]; [5]): 1200 nM
raw nLuc luminescence signal per well, dose response (icSARS-CoV-2-nLuc [1]; concentration 4 µM): 595475 and 830276 and 640577 and 536261 and 913575 and 492391 and 665617 and 629700
raw nLuc luminescence signal per well, dose response (icSARS-CoV-2-nLuc [1]; concentration 12 µM): 258630 and 294602 and 224846 and 411089 and 320496 and 281484 and 318686 and 264637
raw nLuc luminescence signal per well, dose response (icSARS-CoV-2-nLuc [1]; concentration 36 µM): 206765 and 173526 and 155560 and 157303 and 194898 and 197104 and 194373 and 153593

CCCC[C@H](NC(=O)[C@@H]1[C@@H]2[C@H](CN1C(=O)[C@@H](NC(=O)NC1(CS(=O)(=O)C(C)(C)C)CCCCC1)C(C)(C)C)C2(C)C)C(=O)C(=O)NC1CC1 [Naraprelvir]
raw nLuc luminescence signal per well, dose response (icSARS-CoV-2-nLuc [1]; concentration 0.00548697 µM): 1369356 and 1475085 and 1731318 and 2527784 and 1481798 and 1643468 and 2199354 and 1849240
raw nLuc luminescence signal per well, dose response (icSARS-CoV-2-nLuc [1]; concentration 0.0493827 µM): 1943993 and 1719572 and 1531026 and 1265407 and 2037762 and 2296036 and 2164802 and 2297300
raw nLuc luminescence signal per well, dose response (icSARS-CoV-2-nLuc [1]; concentration 36 µM): 156020 and 155359 and 134274 and 128833 and 143226 and 151190 and 148617 and 136366

CCCC[C@H](NC(=O)[C@@H]1[C@@H]2[C@H](CN1C(=O)[C@@H](NC(=O)NC1(CS(=O)(=O)C(C)(C)C)CCCCC1)C(C)(C)C)C2(C)C)C(=O)C(=O)NC1CC1 [Narlaprevir]
IC50 (icSARS-CoV-2-nLuc [1]; [5]): 2000 nM

CC(C)(C)[C@H](NC(=O)C(F)(F)F)C(=O)N1C[C@H]2[C@@H]([C@H]1C(=O)N[C@H](C#N)C[C@@H]1CCNC1=O)C2(C)C [Nirmatrelvir]
IC50 (icSARS-CoV-2-nLuc [1]; [5]): 30 nM
raw nLuc luminescence signal per well, dose response (icSARS-CoV-2-nLuc [1]; concentration 0.148148 µM): 129461 and 120874 and 136852 and 130464 and 147289 and 142579 and 149179 and 144629
raw nLuc luminescence signal per well, dose response (icSARS-CoV-2-nLuc [1]; concentration 0.444444 µM): 144250 and 143681 and 125477 and 126336 and 137581 and 142321 and 138240 and 131508
raw nLuc luminescence signal per well, dose response (icSARS-CoV-2-nLuc [1]; concentration 1.33333 µM): 118306 and 118449 and 125083 and 124306 and 125230 and 130577 and 130784 and 122912
raw nLuc luminescence signal per well, dose response (icSARS-CoV-2-nLuc [1]; concentration 4 µM): 141288 and 139348 and 122581 and 121573 and 133806 and 135394 and 143645 and 132419
raw nLuc luminescence signal per well, dose response (icSARS-CoV-2-nLuc [1]; concentration 12 µM): 120474 and 114610 and 123671 and 120946 and 130686 and 127115 and 126419 and 123917
raw nLuc luminescence signal per well, dose response (icSARS-CoV-2-nLuc [1]; concentration 36 µM): 145649 and 139944 and 128235 and 120973 and 144302 and 134374 and 139812 and 128239

CCC(CC)COC(=O)[C@H](C)N[P@](=O)(OC[C@H]1O[C@@](C#N)(c2ccc3c(N)ncnn23)[C@H](O)[C@@H]1O)Oc1ccccc1 [REM, Remdesivir]
MMV hits Cytotoxicity testing, raw plate signal (C3 cell line; REM 0.0175781 µM): 281684 and 292421
MMV hits Cytotoxicity testing, raw plate signal (C3 cell line; REM 0.0351562 µM): 291406 and 276805
MMV hits Cytotoxicity testing, raw plate signal (C3 cell line; REM 0.0703125 µM): 281356 and 294787
MMV hits Cytotoxicity testing, raw plate signal (C3 cell line; REM 0.140625 µM): 287615 and 296564
MMV hits Cytotoxicity testing, raw plate signal (C3 cell line; REM 0.28125 µM): 294079 and 296093
MMV hits Cytotoxicity testing, raw plate signal (C3 cell line; REM 0.5625 µM): 294522 and 291744
MMV hits Cytotoxicity testing, raw plate signal (C3 cell line; REM 1.125 µM): 302792 and 294805
MMV hits Cytotoxicity testing, raw plate signal (C3 cell line; REM 2.25 µM): 325677 and 303163
MMV hits Cytotoxicity testing, raw plate signal (C3 cell line; REM 4.5 µM): 318660 and 288026
IC50 (icSARS-CoV-2-nLuc [2]): 110 nM
%Spec (icSARS-CoV-2-nLuc [3]): 89.5% and 90.0% and 90.1%
Luminescence signal, Mean (Low signal) (icSARS-CoV-2-nLuc [3]): 181028.44 and 176326.81 and 171413.00
Luminescence signal, Mean (Mid signal) (icSARS-CoV-2-nLuc [3]): 237318.53 and 220683.44 and 197501.22
antiviral activity (raw luminescence signal per well) (icSARS-CoV-2-nLuc [1]): 150661 and 137685 and 146593 and 141302
IC50 (icSARS-CoV-2-nLuc [1]; Severe acute respiratory syndrome coronavirus 2, A549-ACE2, 24 h, read-out: IC50 against icSARS-CoV-2-nLuc, luminescence data): 110 nM
inhibition at 10 µM (icSARS-CoV-2-nLuc [1]; Severe acute respiratory syndrome coronavirus 2, A549-ACE2, 24 h, read-out: inhibition of the virus growth, single point screening): ≥ 90%
raw nLuc luminescence signal per well, dose response (icSARS-CoV-2-nLuc [1]; concentration 0.444444 µM): 158425 and 172179 and 190756 and 205337
raw nLuc luminescence signal per well, dose response (icSARS-CoV-2-nLuc [1]; concentration 4 µM): 140393 and 141108 and 138540
raw nLuc luminescence signal per well, dose response (icSARS-CoV-2-nLuc [1]; concentration 36 µM): 142704 and 141754 and 139812
Low (luminescence signal) (icSARS-CoV-2-nLuc [4]): 335845.000 and 285428.000 and 332082.000 and 282797.000
Mid % (icSARS-CoV-2-nLuc [4]): 82.63% and 75.37% and 74.20% and 71.84%
Mid (luminescence signal) (icSARS-CoV-2-nLuc [4]): 685741.000 and 855540.000 and 882878.000 and 938084.000
Midpc (icSARS-CoV-2-nLuc [4]): 82.63 and 75.37 and 74.20 and 71.84

CC(C)c1nc(CN(C)C(=O)N[C@H](C(=O)N[C@@H](Cc2ccccc2)C[C@H](O)[C@H](Cc2ccccc2)NC(=O)OCc2cncs2)C(C)C)cs1 [Ritonavir]
IC50 (icSARS-CoV-2-nLuc [1]; [5]): 7200 nM
raw nLuc luminescence signal per well, dose response (icSARS-CoV-2-nLuc [1]; concentration 0.444444 µM): 2035673 and 1546345 and 1888256 and 1167395 and 1955627 and 1676062 and 1569839 and 1463523
raw nLuc luminescence signal per well, dose response (icSARS-CoV-2-nLuc [1]; concentration 4 µM): 1601511 and 1681837 and 928783 and 1028382 and 1282975 and 1526902 and 1006334 and 1132442
raw nLuc luminescence signal per well, dose response (icSARS-CoV-2-nLuc [1]; concentration 36 µM): 183316 and 177778 and 167818 and 167859 and 159406 and 217854 and 184869 and 201752
